This test has as its system L1210 leukemia ip in BDF1 mice, survival T/C. In words: NCI In Vivo Anticancer Drug Screen. Data for tumor model L1210 Leukemia (intraperitoneal) in B6D2F1 (BDF1) mice. The note with it: endpoint: mean survival time, higher = longer survival. In outline: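 Tumor was transplanted into mice, which were then dosed with test compound or vehicle alone. Survival was recorded for each group, and the treated figure was expressed relative to the control figure.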

Where [1] appears, read: dose: 100.0 mg/kg/injection, schedule: Q01DX001 (ip), vehicle: saline.
Where [2] appears, read: dose: 200.0 mg/kg/injection, schedule: Q01DX001 (ip), vehicle: saline.
The mark [3] stands for this setting: dose: 400.0 mg/kg/injection, schedule: Q01DX001 (ip), vehicle: saline.
Setting [4] is: dose: 100.0 mg/kg/injection, schedule: Q04DX002 (ip), vehicle: saline with Tween-80.
[5] abbreviates: dose: 100.0 mg/kg/injection, schedule: Q01DX009 (ip), vehicle: Klucel (hydroxypropylcellulose) (HPC).
Setting [6] is: dose: 200.0 mg/kg/injection, schedule: Q01DX009 (ip), vehicle: Klucel (hydroxypropylcellulose) (HPC).
Where [7] appears, read: dose: 25.0 mg/kg/injection, schedule: Q04DX003 (ip), vehicle: saline.
The mark [8] stands for this setting: dose: 50.0 mg/kg/injection, schedule: Q04DX003 (ip), vehicle: saline.
Setting [9] is: dose: 100.0 mg/kg/injection, schedule: Q04DX003 (ip), vehicle: saline.
Where [10] appears, read: dose: 50.0 mg/kg/injection, schedule: Q04DX002 (ip), vehicle: saline with Tween-80.
The mark [11] stands for this setting: dose: 100.0 mg/kg/injection, schedule: Q01DX009 (ip), vehicle: saline with Tween-80.

Where “and” joins values, the source holds several entries; their conditions need not be identical. Identical values can stand only once. Toxic doses and inconclusive results are not listed.

Consider `COc1cc(C)nc2ccc(Cc3ccc4nc(C)cc(OC)c4c3)cc12`, for which the T/C was 94 % of control under setting [1], 93 % of control under setting [2] and 96 % of control under setting [3].

As for `CCCNC(=O)Oc1ccccc1-c1ccccc1`, the T/C is 92 % of control under setting [4]; 103 % of control (dose: 200.0 mg/kg/injection, schedule: Q04DX002 (ip), vehicle: saline with Tween-80); 110 % of control (dose: 400.0 mg/kg/injection, schedule: Q04DX002 (ip), vehicle: saline with Tween-80).

Regarding `CC(C)(C)C(=O)CC(=O)C(C)(C)C.CC(C)(C)C(=O)CC(=O)C(C)(C)C.CC(C)(C)C(=O)CC(=O)C(C)(C)C.[Al]`, the T/C is, setting by setting: under setting [5], 91 % of control; (dose: 100.0 mg/kg/injection, schedule: Q04DX003 (ip), vehicle: Klucel (hydroxypropylcellulose) (HPC)) 91 % of control; under setting [6], 94 % of control; (dose: 200.0 mg/kg/injection, schedule: Q04DX003 (ip), vehicle: Klucel (hydroxypropylcellulose) (HPC)) 94 % of control; (dose: 400.0 mg/kg/injection, schedule: Q01DX009 (ip), vehicle: Klucel (hydroxypropylcellulose) (HPC)) 97 % of control; (dose: 400.0 mg/kg/injection, schedule: Q04DX003 (ip), vehicle: Klucel (hydroxypropylcellulose) (HPC)) 95 % of control.

As for `N#CC(O)C(Br)(Br)Br` (stereo not given), the T/C was 97 % of control (dose: 5.0 mg/kg/injection, schedule: Q01DX001 (ip), vehicle: saline); 92 % of control (dose: 10.0 mg/kg/injection, schedule: Q01DX001 (ip), vehicle: saline); 101 % of control (dose: 20.0 mg/kg/injection, schedule: Q01DX001 (ip), vehicle: saline).

With `NC(=S)c1c(N)ncn1C1OC(CO)C(O)C1O` (stereo not given), the T/C by setting is: (dose: 100.0 mg/kg/injection, schedule: Q01DX005 (ip), vehicle: saline) 92 % of control; (dose: 200.0 mg/kg/injection, schedule: Q01DX005 (ip), vehicle: saline) 90 % of control.

`C=CCc1ccc(OC(=O)Nc2ccc(C)cc2Cl)c(OC)c1`: the T/C (dose: 100.0 mg/kg/injection, schedule: Q04DX002 (ip), vehicle: carboxymethylcellulose (CMC)) was 93 % of control and 101 % of control; the T/C (dose: 200.0 mg/kg/injection, schedule: Q04DX002 (ip), vehicle: carboxymethylcellulose (CMC)) was 96 % of control and 100 % of control; the T/C (dose: 400.0 mg/kg/injection, schedule: Q04DX002 (ip), vehicle: carboxymethylcellulose (CMC)) was 97 % of control and 107 % of control.

`CC(=O)ON1CCC=NC1`: the T/C by setting is: (dose: 50.0 mg/kg/injection, schedule: Q04DX002 (ip), vehicle: saline) 102 % of control; (dose: 100.0 mg/kg/injection, schedule: Q04DX002 (ip), vehicle: saline) 91 % of control; (dose: 200.0 mg/kg/injection, schedule: Q04DX002 (ip), vehicle: saline) 91 % of control; (dose: 400.0 mg/kg/injection, schedule: Q04DX002 (ip), vehicle: saline) 109 % of control.

`OCCN1CCN(CCCN2c3ccccc3C=Cc3ccccc32)CC1`: the T/C reads like this: (dose: 6.25 mg/kg/injection, schedule: Q01DX009 (ip), vehicle: saline) 93 % of control; (dose: 12.5 mg/kg/injection, schedule: Q01DX009 (ip), vehicle: saline) 93 % of control; (dose: 25.0 mg/kg/injection, schedule: Q01DX009 (ip), vehicle: saline) 95 % of control; under setting [7], 93 % of control; (dose: 50.0 mg/kg/injection, schedule: Q01DX009 (ip), vehicle: saline) 102 % of control; under setting [8], 98 % of control. For the same compound, the T/C under setting [9] is 102 % of control.

`Cc1ccc(S(=O)(=O)Cl)cc1C(=O)O`: the T/C runs as follows: (dose: 12.5 mg/kg/injection, schedule: Q01DX001 (ip), vehicle: saline with Tween-80) 92 % of control and 99 % of control; (dose: 25.0 mg/kg/injection, schedule: Q01DX001 (ip), vehicle: saline with Tween-80) 99 % of control and 87 % of control; (dose: 25.0 mg/kg/injection, schedule: Q01DX009 (ip), vehicle: saline with Tween-80) 102 % of control; (dose: 25.0 mg/kg/injection, schedule: Q04DX003 (ip), vehicle: saline with Tween-80) 103 % of control; (dose: 50.0 mg/kg/injection, schedule: Q01DX009 (ip), vehicle: saline with Tween-80) 93 % of control; under setting [10], 96 % of control and 108 % of control. Also, the T/C is, setting by setting: (dose: 50.0 mg/kg/injection, schedule: Q04DX003 (ip), vehicle: saline with Tween-80) 97 % of control; (dose: 100.0 mg/kg/injection, schedule: Q01DX001 (ip), vehicle: saline with Tween-80) 94 % of control and 95 % of control; under setting [11], 96 % of control; under setting [4], 104 % of control and 86 % of control and 90 % of control; (dose: 100.0 mg/kg/injection, schedule: Q04DX003 (ip), vehicle: saline with Tween-80) 98 % of control.

In the case of `O=C(/C=C/c1ccccc1)c1ccc(O)cc1O`, the T/C is, setting by setting: (dose: 50.0 mg/kg/injection, schedule: Q01DX001 (ip), vehicle: saline) 97 % of control; under setting [1], 95 % of control; under setting [2], 97 % of control.

Take `Cc1cccc(C)c1-n1nnnc1N`: the T/C was 105 % of control (dose: 50.0 mg/kg/injection, schedule: Q01DX009 (ip), vehicle: Klucel (hydroxypropylcellulose) (HPC)); 119 % of control under setting [5]; 101 % of control under setting [6].

`Cn1c(Cl)nc2c(Cl)nc(Cl)nc21`: the T/C is 102 % of control (dose: 6.25 mg/kg/injection, schedule: Q01DX009 (ip), vehicle: Klucel (hydroxypropylcellulose) (HPC)); 102 % of control (dose: 12.5 mg/kg/injection, schedule: Q01DX009 (ip), vehicle: Klucel (hydroxypropylcellulose) (HPC)); 92 % of control under setting [1]; 94 % of control under setting [2]; 94 % of control under setting [3].

`Cc1nc(N)sc1C`: the T/C by setting is: (dose: 25.0 mg/kg/injection, schedule: Q04DX002 (ip), vehicle: saline with Tween-80) 100 % of control; under setting [7], 89 % of control; under setting [10], 102 % of control; under setting [8], 100 % of control; (dose: 75.0 mg/kg/injection, schedule: Q01DX001 (ip), vehicle: carboxymethylcellulose (CMC)) 100 % of control; under setting [9], 102 % of control. Moreover, the T/C reads like this: (dose: 150.0 mg/kg/injection, schedule: Q01DX001 (ip), vehicle: carboxymethylcellulose (CMC)) 102 % of control; (dose: 300.0 mg/kg/injection, schedule: Q01DX001 (ip), vehicle: carboxymethylcellulose (CMC)) 100 % of control.

Turning to `CCC(C)(O)CC`, the T/C was 97 % of control under setting [1], 110 % of control under setting [2] and 110 % of control under setting [3].

Take `c1ccc2c(C3CO3)c3ccc4ccccc4c3cc2c1` (stereo not given): the T/C is 113 % of control (dose: 100.0 mg/kg/injection, schedule: Q04DX002 (ip), vehicle: other); 179 % of control (dose: 200.0 mg/kg/injection, schedule: Q04DX002 (ip), vehicle: other); 120 % of control (dose: 400.0 mg/kg/injection, schedule: Q04DX002 (ip), vehicle: other).

In the case of `C=CC(N)=O` (tested in a mixture with another compound), the T/C reads like this: under setting [1], 99 % of control; under setting [2], 99 % of control; under setting [3], 89 % of control.

In the case of `O=C1NNC(c2ccccc2)C1c1ccccc1` (stereo not given), the T/C reads like this: (dose: 100.0 mg/kg/injection, schedule: Q01DX001 (ip), vehicle: carboxymethylcellulose (CMC)) 93 % of control; (dose: 200.0 mg/kg/injection, schedule: Q01DX001 (ip), vehicle: carboxymethylcellulose (CMC)) 95 % of control; (dose: 400.0 mg/kg/injection, schedule: Q01DX001 (ip), vehicle: carboxymethylcellulose (CMC)) 97 % of control.

`O=C(Nc1ccc(N=C(c2ccccc2)N2CCOCC2)cc1)c1ccc(C(=O)Nc2ccc(N=C(c3ccccc3)N3CCOCC3)cc2)cc1`: the T/C is, setting by setting: (dose: 62.0 mg/kg/injection, schedule: Q01DX Z (ip), vehicle: carboxymethylcellulose (CMC)) 92 % of control; (dose: 125.0 mg/kg/injection, schedule: Q01DX Z (ip), vehicle: carboxymethylcellulose (CMC)) 86 % of control; (dose: 250.0 mg/kg/injection, schedule: Q01DX Z (ip), vehicle: carboxymethylcellulose (CMC)) 91 % of control.

As for `COC(=O)/C=C(\C(=O)OC)N1CCCCC1`, the T/C (dose: 18.75 mg/kg/injection, schedule: Q01DX009 (ip), vehicle: saline with Tween-80) was 98 % of control; the T/C (dose: 37.5 mg/kg/injection, schedule: Q01DX009 (ip), vehicle: saline with Tween-80) is 101 % of control; the T/C (dose: 75.0 mg/kg/injection, schedule: Q01DX009 (ip), vehicle: saline with Tween-80) is 91 % of control; the T/C under setting [11] is 107 % of control.

For the origin of these results see PubChem BioAssay AID248 (DTP/NCI, 2004).
